Experimental data: US20140357713A1, “ANTIMICROBIAL COMPOUNDS AND METHODS OF USE” (NexMed Holdings, Inc., priority 2012, published 2014)
Read-outs that look alike come from different tables or passages of the source.

What was measured:
Experiment in all cases: MIC assay with different strains, Example 35
Assay type in all cases: cell-based
[1] = system: Haemophilus influenza (ATCC 19418)
Experimental: (§1) The minimum inhibitory concentration (MIC) is used to determine the lowest concentration of a test product claiming antimicrobial effects that will inhibit growth of a microorganism. Each microbial suspension was adjusted approximately 10^7 to 10^8 colony forming units (CFU) per mL and labeled as the stock suspension. The stock suspension was further diluted to 1:200 in Mueller Hinton broth to obtain a test sample having a concentration of […]. The test sample was then tested for MIC as described in M202.R02. After incubation, each tube was examined for turbidity, which indicated growth or no growth. For the tubes where the product rendered the media turbid, an aliquot of the media was streaked onto agar plates to confirm growth or lack of growth.

[2] = system: Enterococcus faecalis (ATCC 51299)
Experimental: as §1

[3] = system: Bacillus subtilis (ATCC 6633)
Experimental: as §1

[4] = system: Staphylococcus saprophyticus (ATCC 15305)
Experimental: as §1

[5] = system: Staphylococcus aureus (ATCC 6538)
Experimental: as §1

[6] = system: Escherichia coli (ATCC 11229)
Experimental: as §1

[7] = system: Klebsiella oxytoca (ATCC 43165)
Experimental: as §1

[8] = system: Candida albicans (ATCC 10231)
Experimental: as §1

[9] = system: Streptococcus pneumonia (ATCC 6303)
Experimental: as §1

[10] = system: Proteus mirabilis (ATCC 7002)
Experimental: as §1

[11] = system: Staphylococcus haemolyticus (ATCC 29970)
Experimental: as §1

[12] = system: Enterobacter cloacae (ATCC 13047)
Experimental: as §1

[13] = system: Escherichia coli ATCC 25922
Experimental: as §1

[14] = system: Staphylococcus epidermidis (ATCC 12228)
Experimental: as §1

[15] = system: Streptococcus pyogenes (ATCC 19615)
Experimental: as §1

[16] = system: Acinetobacter baumannii (ATCC 19606)
Experimental: as §1

CCCCCCCCCCCCOC(=O)C(C)NC.Cl (stereo not drawn) [Nex-59, Dodecyl 2-(methylamino)propanoate hydrochloride]
MIC ([1]; Example 35): ≦0.01%
MIC ([1]; Haemophilus, ATCC19418): ≥ 100 µg/mL
Growth/no growth ([1]; Sample Concentration 0.01%): No
Growth/no growth ([1]; Sample Concentration 0.02%): No
Growth/no growth ([1]; Sample Concentration 0.04%): No
Growth/no growth ([1]; Sample Concentration 0.08%): No
Growth/no growth ([1]; Sample Concentration 0.16%): No
Growth/no growth ([1]; Sample Concentration 0.32%): No
Growth/no growth ([1]; Sample Concentration 0.63%): No
Growth/no growth ([1]; Sample Concentration 1.25%): No
Growth/no growth ([1]; Sample Concentration 2.5%): No
MIC ([2]; Enterococcus faecalis, ATCC51299, Table 19 summary, read-out: MIC): 400 µg/mL
MIC ([2]; Example 35): 0.04%
Growth/no growth ([2]; Sample Concentration 0.01%): Growth
Growth/no growth ([2]; Sample Concentration 0.02%): Growth
Growth/no growth ([2]; Sample Concentration 0.04%): No
Growth/no growth ([2]; Sample Concentration 0.08%): No
Growth/no growth ([2]; Sample Concentration 0.16%): No
Growth/no growth ([2]; Sample Concentration 0.32%): No
Growth/no growth ([2]; Sample Concentration 0.63%): No
Growth/no growth ([2]; Sample Concentration 1.25%): No
Growth/no growth ([2]; Sample Concentration 2.5%): No
MIC ([3]; Bacillus subtilis, ATCC6633, Table 19 summary, read-out: MIC): 400 µg/mL
MIC ([3]; Example 35): 0.04%
Growth/no growth ([3]; Sample Concentration 0.01%): Growth
Growth/no growth ([3]; Sample Concentration 0.02%): Growth
MIC ([4]; Example 35): 0.02%
Growth/no growth ([4]; Sample Concentration 0.01%): Growth
Growth/no growth ([4]; Sample Concentration 0.02%): No
Growth/no growth ([4]; Sample Concentration 0.04%): No
Growth/no growth ([4]; Sample Concentration 0.08%): No
Growth/no growth ([4]; Sample Concentration 0.16%): No
Growth/no growth ([4]; Sample Concentration 0.32%): No
Growth/no growth ([4]; Sample Concentration 0.63%): No
Growth/no growth ([4]; Sample Concentration 1.25%): No
Growth/no growth ([4]; Sample Concentration 2.5%): No
MIC ([4]; Staphylococcus saprophyticus, ATCC15305, Table 19 summary, read-out: MIC): 200 µg/mL
MIC ([5]; Example 35): 0.04%
Growth/no growth ([5]; Sample Concentration 0.01%): Growth
Growth/no growth ([5]; Sample Concentration 0.02%): Growth
MIC ([5]; Staphylococcus aureus, ATCC6538, Table 19 summary, read-out: MIC): 400 µg/mL
MIC ([6]; Escherichia coli, ATCC11229, Table 19 summary, read-out: MIC): 800 µg/mL
MIC ([6]; Example 35): 0.08%
Growth/no growth ([6]; Sample Concentration 0.01%): Growth
Growth/no growth ([6]; Sample Concentration 0.02%): Growth
Growth/no growth ([6]; Sample Concentration 0.04%): Growth
MIC ([7]; Example 35): 0.63%
MIC ([7]; Klebsiella oxytoca, ATCC 43165 / ATCC 43615, Table 19 summary, strain printed ATCC 43615, read-out: MIC): 6300 µg/mL
Growth/no growth ([7]; Sample Concentration 0.01%): Growth
Growth/no growth ([7]; Sample Concentration 0.02%): Growth
Growth/no growth ([7]; Sample Concentration 0.04%): Growth
Growth/no growth ([7]; Sample Concentration 0.08%): Growth
Growth/no growth ([7]; Sample Concentration 0.16%): Growth
Growth/no growth ([7]; Sample Concentration 0.32%): Growth
Growth/no growth ([7]; Sample Concentration 0.63%): No
Growth/no growth ([7]; Sample Concentration 1.25%): No
Growth/no growth ([7]; Sample Concentration 2.5%): No
MIC ([8]; Candida albicans, ATCC10231, Table 19 summary, read-out: MIC): 400 µg/mL
MIC ([8]; Example 35): 0.04%
Growth/no growth ([8]; Sample Concentration 0.01%): Growth
Growth/no growth ([8]; Sample Concentration 0.02%): Growth
MIC ([9]; Example 35): 0.32%
Growth/no growth ([9]; Sample Concentration 0.01%): Growth
Growth/no growth ([9]; Sample Concentration 0.02%): Growth
Growth/no growth ([9]; Sample Concentration 0.04%): Growth
Growth/no growth ([9]; Sample Concentration 0.08%): Growth
Growth/no growth ([9]; Sample Concentration 0.16%): Growth
MIC ([9]; Streptococcus pneumoniae, ATCC6303, Table 19 summary, read-out: MIC): 3200 µg/mL
MIC ([10]; Example 35): 0.32%
MIC ([10]; Proteus mirabilis, ATCC7002, Table 19 summary, read-out: MIC): 3200 µg/mL
Growth/no growth ([10]; Sample Concentration 0.01%): Growth
Growth/no growth ([10]; Sample Concentration 0.02%): Growth
Growth/no growth ([10]; Sample Concentration 0.04%): Growth
Growth/no growth ([10]; Sample Concentration 0.08%): Growth
Growth/no growth ([10]; Sample Concentration 0.16%): Growth
MIC ([11]; Example 35): 0.02%
Growth/no growth ([11]; Sample Concentration 0.01%): Growth
Growth/no growth ([11]; Sample Concentration 0.02%): No
Growth/no growth ([11]; Sample Concentration 0.04%): No
Growth/no growth ([11]; Sample Concentration 0.08%): No
Growth/no growth ([11]; Sample Concentration 0.16%): No
Growth/no growth ([11]; Sample Concentration 0.32%): No
Growth/no growth ([11]; Sample Concentration 0.63%): No
Growth/no growth ([11]; Sample Concentration 1.25%): No
Growth/no growth ([11]; Sample Concentration 2.5%): No
MIC ([11]; Staphylococcus haemolyticus, ATCC29970, Table 19 summary, read-out: MIC): 200 µg/mL
MIC ([12]; Enterobacter cloacae, ATCC13047, Table 19 summary, read-out: MIC): 1600 µg/mL
MIC ([12]; Example 35): 0.16%
Growth/no growth ([12]; Sample Concentration 0.01%): Growth
Growth/no growth ([12]; Sample Concentration 0.02%): Growth
Growth/no growth ([12]; Sample Concentration 0.04%): Growth
Growth/no growth ([12]; Sample Concentration 0.08%): Growth
MIC ([13]; Example 35): 0.16%
Growth/no growth ([13]; Sample Concentration 0.01%): Growth
Growth/no growth ([13]; Sample Concentration 0.02%): Growth
Growth/no growth ([13]; Sample Concentration 0.04%): Growth
Growth/no growth ([13]; Sample Concentration 0.08%): Growth
Growth/no growth ([13]; Sample Concentration 0.16%): No
Growth/no growth ([13]; Sample Concentration 0.32%): No
Growth/no growth ([13]; Sample Concentration 0.63%): No
Growth/no growth ([13]; Sample Concentration 1.25%): No
Growth/no growth ([13]; Sample Concentration 2.5%): No
MIC ([14]; Example 35): 0.02%
Growth/no growth ([14]; Sample Concentration 0.01%): Growth
Growth/no growth ([14]; Sample Concentration 0.02%): No
Growth/no growth ([14]; Sample Concentration 0.04%): No
Growth/no growth ([14]; Sample Concentration 0.08%): No
Growth/no growth ([14]; Sample Concentration 0.16%): No
Growth/no growth ([14]; Sample Concentration 0.32%): No
Growth/no growth ([14]; Sample Concentration 0.63%): No
Growth/no growth ([14]; Sample Concentration 1.25%): No
Growth/no growth ([14]; Sample Concentration 2.5%): No
MIC ([14]; Staphylococcus epidermidis, ATCC12228, Table 19 summary, read-out: MIC): 200 µg/mL
MIC ([15]; Example 35): ≦0.01%
Growth/no growth ([15]; Sample Concentration 0.01%): No
Growth/no growth ([15]; Sample Concentration 0.02%): No
Growth/no growth ([15]; Sample Concentration 0.04%): No
Growth/no growth ([15]; Sample Concentration 0.08%): No
Growth/no growth ([15]; Sample Concentration 0.16%): No
Growth/no growth ([15]; Sample Concentration 0.32%): No
Growth/no growth ([15]; Sample Concentration 0.63%): No
Growth/no growth ([15]; Sample Concentration 1.25%): No
Growth/no growth ([15]; Sample Concentration 2.5%): No
MIC ([15]; Streptococcus pyogenes, ATCC19615, Table 19 summary, read-out: MIC): 100 µg/mL
MIC ([16]; Acinetobacter baumannii, ATCC19606, Table 19 summary, read-out: MIC): 800 µg/mL
MIC ([16]; Example 35): 0.08%
Growth/no growth ([16]; Sample Concentration 0.01%): Growth
Growth/no growth ([16]; Sample Concentration 0.02%): Growth
Growth/no growth ([16]; Sample Concentration 0.04%): Growth
